For one data set, the system named is SD rats. Briefly: Diuretic efficacy of ROMK inhibitors in SD rats. Type of data set: in vivo. The following applies: 0.03 and 0.1 mg/kg i.g. once, after urine collection. On the procedure: The diuretic efficacy of compound 1 and positive control drug of ROMK inhibitor on SD rats was evaluated.
Male SD rats were purchased from SINO-BRITSH SIPPR/BK LAB. ANIMAL LTD., CO (Shanghai, China, Certificate No. 2008001647752, License SCXK (Shanghai) 2013-0016). The rats were 120-130 g, and fed at 5/cage, in a 12/12 hours light/dark cycle regulation, at a constant temperature of 23±1° C., humidity of 50-60%, and free access to water and food. The male SD rats were acclimated to this condition for 7 days before their use in the diuresis experiment.
The experiment was carried out according to the method disclosed in PCT Patent Application Publication WO2010129379A1. After adaptive feeding, the rats were placed in metabolism cages and fasted overnight. The rats were weighed and randomly divided into the following groups: blank control group, compound 1 tested drug 0.03 mg/kg group and 0.1 mg/kg group, and the positive control group 0.03 mg/kg and group 0.1 mg/kg, with 10 rats for each group. Each rat was intragastrically administered each compound (ig, 1 ml/kg). The rats in the blank control group were fed with the corresponding solvent. After intragastric administration, the rats were placed in the normal cage. After 30 min, 25 ml/kg normal saline was given. Rats were put into the metabolic cages, and fasting for food and water began inmediately. The total urine volume in 4 h was collected and measured. The urinary sodium and urinary potassium excretion in 4 h were also measured. The orbital serum was collected after the collection of urine to test the serum sodium and serum potassium concentrations.
The experimental data were expressed as mean±standard deviation (S.D.). The data was statistically compared using the t test of excel.

The nature of data set [1]: Solubility observed when preparing the drugs for the diuresis experiment. Type of data set: physicochemical. Conditions: preparation of the dosing liquid, observation in words. The text has this: In this experiment, the solubility of the test compound I was very good. There was no delamination phenomenon. […] After fully grinding, the solubility improved. […] Moreover, the effect was dose-dependent for each dose of the test compound I and the positive control drug.

SMILES strings stand for the structures. “Also recorded” adds a separate entry of the source.

As to `Cc1cc(C(=O)NC2CCN(C[C@H](O)c3ccc4c(c3C)COC4=O)CC2)ncc1C#N` [positive control drug], in the data set with SD rats, the serum potassium entry was “changed a little; also recorded: no effect” and the serum sodium entry is reported as “changed a little”. Moreover, in data set [1], the solubility result was “poor solubility”.
In the case of `COc1cc(C(=O)NC2CCN(C[C@H](O)c3ccc4c(c3C)COC4=O)CC2)ncc1C#N` [Example 1, (R)-5-cyano-N-(1-(2-hydroxy-2-(4-methyl-1-oxo-1,3-dihydroisobenzofuran-5-yl)ethyl)piperidin-4-yl)-4-methoxypicolinamide], the values for the serum potassium entry in the data set on SD rats and in the data set on SD rats (listed as Compound I) were “changed a little” and “no effect”, respectively. The serum sodium result in the data set on SD rats is given as “changed a little”. For the same compound, the solubility entry in data set [1] is listed as “very good”.

Values taken from patent US10759788B2, “Pharmaceutical uses of pyridine carboxamide derivatives” (Jiangsu Hengrui Medicine Co., Ltd., priority 2014, dated 2020).
